Measurements taken from the supplement of paper PMC11061612.

Assays:
Test in all cases: combination Emax (second highest fraction inhibited in the dose matrix, 72 h); higher = more inhibition; extreme values may be limits of the assay
[1] = system: HDQ-P1 (Breast Carcinoma)
In short: (§1)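 After 24 hours at 37°C and 5% CO2 in 1536-well plates, cells in DMEM/F12 or RPMI plus 10% FBS received two-drug dose matrices for 72 hours. Viability came from CellTiter-Glo 2.0 luminescence and was scaled as inhibition, anchored at 0 by vehicle wells and at 1 by blank wells. Combination Emax is taken as the second-highest inhibition in the matrix, and Bliss excess as the observed combination effect less EA + EB − EA·EB, with EA and EB the single-agent effects.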

[2] = system: KM12 (Colorectal Carcinoma)
In short: as §1

[3] = system: SW1417 (Colorectal Carcinoma)
In short: as §1

[4] = system: GR-ST (B-Lymphoblastic Leukemia)
In short: as §1

[5] = system: BFTC-905 (Bladder Carcinoma)
In short: as §1

[6] = system: L-540 (Hodgkin's Lymphoma)
In short: as §1

[7] = system: SR (Other Blood Carcinomas)
In short: as §1

LN-18 (Glioblastoma) = system: LN-18 (Glioblastoma)
In short: as §1

[8] = system: KARPAS-45 (T-Lymphoblastic Leukemia)
In short: as §1

MEL-JUSO (Melanoma) = system: MEL-JUSO (Melanoma)
In short: as §1

[9] = system: SU-DHL-8 (B-Cell Non-Hodgkin's Lymphoma)
In short: as §1

CHP-212 (Neuroblastoma) = system: CHP-212 (Neuroblastoma)
In short: as §1

[10] = system: BL-41 (Burkitt's Lymphoma)
In short: as §1

NCI-H2818 (Mesothelioma) = system: NCI-H2818 (Mesothelioma)
In short: as §1

ES8 (Ewing's Sarcoma) = system: ES8 (Ewing's Sarcoma)
In short: as §1

[11] = system: MS751 (Cervical Carcinoma)
In short: as §1

[12] = system: KYSE-180 (Esophageal Squamous Cell Carcinoma)
In short: as §1

[13] = system: KCL-22 (Chronic Myelogenous Leukemia)
In short: as §1

[14] = system: PANC-08-13 (Pancreatic Carcinoma)
In short: as §1

[15] = system: HL-60 (Acute Myeloid Leukemia)
In short: as §1

Which results are given for `CCN(CCO)CCCOc1ccc2c(Nc3cc(CC(=O)Nc4cccc(F)c4)[nH]n3)ncnc2c1` [AZD2811] + C=CCn1c(=O)c2cnc(Nc3ccc(N4CCN(C)CC4)cc3)nc2n1-c1cccc(C(C)(C)O)n1 [AZD1775] (first compound max 1 µM, partner max 1 µM)?
combination Emax [1]: 0.522; combination Emax [2]: 0.705; combination Emax [3]: 0.412; combination Emax [4]: 0.789; combination Emax [5]: 0.531; combination Emax [6]: 0.916; combination Emax [7]: 0.991; combination Emax (LN-18 (Glioblastoma)): 0.458; combination Emax [8]: 0.936; combination Emax (MEL-JUSO (Melanoma)): 0.333; combination Emax [9]: 0.929; combination Emax (CHP-212 (Neuroblastoma)): 0.843; combination Emax [10]: 1; combination Emax (NCI-H2818 (Mesothelioma)): 0.276; combination Emax (ES8 (Ewing's Sarcoma)): 1; combination Emax [11]: 0.599; combination Emax [12]: 0.726; combination Emax [13]: 0.932; combination Emax [14]: 0.268; combination Emax [15]: 0.845

`CC1(C)CCC(CN2CCN(c3ccc(C(=O)NS(=O)(=O)c4ccc(NCC5CCOCC5)c([N+](=O)[O-])c4)c(Oc4cnc5[nH]ccc5c4)c3)CC2)=C(c2ccc(Cl)cc2)C1` [Venetoclax] + C=CCn1c(=O)c2cnc(Nc3ccc(N4CCN(C)CC4)cc3)nc2n1-c1cccc(C(C)(C)O)n1 [AZD1775] (first compound max 1 µM, partner max 1 µM) was tested. Which “combination Emax” value [1] did it give?
The value was 0.532.

And the “combination Emax” value [2]?
Its value is 0.781.

And the “combination Emax” value [3]?
Its value is 0.505.

And the “combination Emax” value [4]?
Its value is 0.813.

What about the “combination Emax” value [5] of the same compound?
Its value is 0.799.

And the “combination Emax” value [6]?
The value was 0.957.

What about the “combination Emax” value [7] of the same compound?
Its value is 0.995.

And the “combination Emax” value (LN-18 (Glioblastoma))?
Its value is 0.555.

What about the “combination Emax” value [8] of the same compound?
The value was 0.955.

What about the “combination Emax” value (MEL-JUSO (Melanoma)) of the same compound?
Its value is 0.521.

And the “combination Emax” value [9]?
The value was 1.

What about the “combination Emax” value (CHP-212 (Neuroblastoma)) of the same compound?
The value was 0.769.

What about the “combination Emax” value [10] of the same compound?
Its value is 1.

And the “combination Emax” value (NCI-H2818 (Mesothelioma))?
The value was 0.331.

And the “combination Emax” value (ES8 (Ewing's Sarcoma))?
Its value is 0.94.

What about the “combination Emax” value [11] of the same compound?
Its value is 0.261.

And the “combination Emax” value [12]?
Its value is 0.739.

What about the “combination Emax” value [13] of the same compound?
The value was 0.943.

And the “combination Emax” value [14]?
Its value is 0.328.

What about the “combination Emax” value [15] of the same compound?
Its value is 0.899.

With `Cc1cc2ncnn2cc1Nc1ncc2c(n1)n(C1CCOCC1)c(=O)n2C` [AZD7648] + CCN(CCO)CCCOc1ccc2c(Nc3cc(CC(=O)Nc4cccc(F)c4)[nH]n3)ncnc2c1 [AZD2811] (first compound max 10 µM, 7x7, partner max 1 µM) as the compound, how does the “combination Emax” value [1] read?
The value was 0.423.

What about the “combination Emax” value [2] of the same compound?
Its value is 0.261.

And the “combination Emax” value [3]?
Its value is 0.313.

What about the “combination Emax” value [4] of the same compound?
The value was 0.466.

What about the “combination Emax” value [5] of the same compound?
Its value is 0.54.

What about the “combination Emax” value [6] of the same compound?
Its value is 0.504.

And the “combination Emax” value [7]?
The value was 0.86.

And the “combination Emax” value (LN-18 (Glioblastoma))?
The value was 0.393.

What about the “combination Emax” value [8] of the same compound?
The value was 0.931.

And the “combination Emax” value (MEL-JUSO (Melanoma))?
Its value is 0.258.

And the “combination Emax” value [9]?
Its value is 0.245.

And the “combination Emax” value (CHP-212 (Neuroblastoma))?
The value was 0.693.

What about the “combination Emax” value [10] of the same compound?
Its value is 0.747.

And the “combination Emax” value (NCI-H2818 (Mesothelioma))?
The value was 0.434.

And the “combination Emax” value (ES8 (Ewing's Sarcoma))?
The value was 1.

What about the “combination Emax” value [11] of the same compound?
The value was 0.453.

What about the “combination Emax” value [12] of the same compound?
The value was 0.207.

What about the “combination Emax” value [13] of the same compound?
Its value is 0.485.

And the “combination Emax” value [14]?
The value was 0.254.

What about the “combination Emax” value [15] of the same compound?
Its value is 0.865.

For `CC(=O)c1c(C)c2cnc(Nc3ccc(N4CCNCC4)cn3)nc2n(C2CCCC2)c1=O` [Palbociclib] + CC1(C)CCC(CN2CCN(c3ccc(C(=O)NS(=O)(=O)c4ccc(NCC5CCOCC5)c([N+](=O)[O-])c4)c(Oc4cnc5[nH]ccc5c4)c3)CC2)=C(c2ccc(Cl)cc2)C1 [Venetoclax] (first compound max 10 µM, 7x7, partner max 1 µM), which “combination Emax” value [1] is on record?
Its value is 0.109.

What about the “combination Emax” value [2] of the same compound?
Its value is 0.683.

And the “combination Emax” value [3]?
The value was 0.147.

And the “combination Emax” value [4]?
Its value is 0.715.

What about the “combination Emax” value [5] of the same compound?
Its value is 0.326.

What about the “combination Emax” value [6] of the same compound?
Its value is 0.257.

And the “combination Emax” value [7]?
The value was 0.94.

And the “combination Emax” value (LN-18 (Glioblastoma))?
Its value is 0.383.

And the “combination Emax” value [8]?
The value was 1.

And the “combination Emax” value (MEL-JUSO (Melanoma))?
The value was 0.143.

What about the “combination Emax” value [9] of the same compound?
The value was 0.37.

What about the “combination Emax” value (CHP-212 (Neuroblastoma)) of the same compound?
Its value is 0.481.

And the “combination Emax” value [10]?
Its value is 0.312.

And the “combination Emax” value (NCI-H2818 (Mesothelioma))?
Its value is 0.203.

What about the “combination Emax” value (ES8 (Ewing's Sarcoma)) of the same compound?
Its value is 0.461.

What about the “combination Emax” value [11] of the same compound?
The value was 0.128.

And the “combination Emax” value [12]?
Its value is 0.188.

And the “combination Emax” value [13]?
The value was 0.513.

And the “combination Emax” value [14]?
Its value is 0.157.

And the “combination Emax” value [15]?
The value was 0.736.

For `CN(C)CCCOc1ccc(-c2ccc3ncc4c(c3c2)n(C2CCOCC2)c(=O)n4C)cn1` [AZD0156] + C=CCn1c(=O)c2cnc(Nc3ccc(N4CCN(C)CC4)cc3)nc2n1-c1cccc(C(C)(C)O)n1 [AZD1775] (first compound max 1 µM, partner max 1 µM), which “combination Emax” value [1] is on record?
Its value is 0.469.

And the “combination Emax” value [2]?
Its value is 0.731.

What about the “combination Emax” value [3] of the same compound?
The value was 0.407.

What about the “combination Emax” value [4] of the same compound?
Its value is 0.78.

And the “combination Emax” value [5]?
The value was 0.517.

What about the “combination Emax” value [6] of the same compound?
Its value is 0.954.

What about the “combination Emax” value [7] of the same compound?
The value was 0.99.

What about the “combination Emax” value (LN-18 (Glioblastoma)) of the same compound?
The value was 0.291.

What about the “combination Emax” value [8] of the same compound?
The value was 0.854.

And the “combination Emax” value (MEL-JUSO (Melanoma))?
Its value is 0.486.

And the “combination Emax” value [9]?
Its value is 0.888.

And the “combination Emax” value (CHP-212 (Neuroblastoma))?
The value was 0.831.

And the “combination Emax” value [10]?
The value was 1.

And the “combination Emax” value (NCI-H2818 (Mesothelioma))?
Its value is 0.327.

What about the “combination Emax” value (ES8 (Ewing's Sarcoma)) of the same compound?
Its value is 0.646.

What about the “combination Emax” value [11] of the same compound?
Its value is 0.155.

What about the “combination Emax” value [12] of the same compound?
Its value is 0.749.

What about the “combination Emax” value [13] of the same compound?
Its value is 0.895.

And the “combination Emax” value [14]?
Its value is 0.247.

What about the “combination Emax” value [15] of the same compound?
Its value is 0.387.

Which “combination Emax” value [1] does the source give for `CN(CCO)CC[C@H](CSc1ccccc1)Nc1ccc(S(=O)(=O)NC(=O)c2ccc(N3CCC([C@@H](O)c4ccccc4-c4ccc(Cl)cc4)CC3)cc2)cc1S(=O)(=O)C(F)(F)F` [AZD4320] + Cn1cnc2c(F)c(Nc3ccc(Br)cc3Cl)c(C(=O)NOCCO)cc21 [Selumetinib] (first compound max 1 µM, 7x7, partner max 3 µM) here?
The value was 0.771.

What about the “combination Emax” value [2] of the same compound?
Its value is 0.579.

And the “combination Emax” value [3]?
The value was 0.935.

And the “combination Emax” value [4]?
Its value is 0.494.

What about the “combination Emax” value [5] of the same compound?
Its value is 0.825.

What about the “combination Emax” value [6] of the same compound?
Its value is 0.716.

What about the “combination Emax” value [7] of the same compound?
The value was 0.731.

And the “combination Emax” value (LN-18 (Glioblastoma))?
The value was 0.329.

And the “combination Emax” value [8]?
Its value is 0.996.

What about the “combination Emax” value (MEL-JUSO (Melanoma)) of the same compound?
The value was 0.432.

And the “combination Emax” value [9]?
The value was 0.988.

What about the “combination Emax” value (CHP-212 (Neuroblastoma)) of the same compound?
The value was 0.925.

What about the “combination Emax” value [10] of the same compound?
Its value is 0.801.

And the “combination Emax” value (NCI-H2818 (Mesothelioma))?
Its value is 0.31.

What about the “combination Emax” value (ES8 (Ewing's Sarcoma)) of the same compound?
The value was 0.99.

And the “combination Emax” value [11]?
The value was 0.413.

What about the “combination Emax” value [12] of the same compound?
Its value is 0.19.

What about the “combination Emax” value [13] of the same compound?
Its value is 0.557.

What about the “combination Emax” value [14] of the same compound?
Its value is 0.528.

And the “combination Emax” value [15]?
The value was 0.994.
